According to US8153679B2, “Radiolabelled inhibitors of the glycine 1 transporter” (Hoffmann-La Roche Inc., priority 2008, dated 2012):

How the values were obtained:
GlyT1 transporter [1] = target: T1, GlyT1 transporter (Rattus norvegicus, UniProt P28572); assay: Autoradiographic studies in rat brain sections; format: binding; conditions: for distribution of the binding sites in rat brain sections: radiotracer 1 nM, 60 min, 37° C., high densities in thalamus, brainstem, pons, medulla oblungata, cerebellum, lower in striatum, cortex, hippocampus
T1 construct: Ten μm-thick sagittal sections were cut in a Cryostat and thaw-mounted on adhesion glass slides; from tissue; host or cells: rat brain, sagittal sections (male Wistar rats)
T1 sequence (P28572 1-638): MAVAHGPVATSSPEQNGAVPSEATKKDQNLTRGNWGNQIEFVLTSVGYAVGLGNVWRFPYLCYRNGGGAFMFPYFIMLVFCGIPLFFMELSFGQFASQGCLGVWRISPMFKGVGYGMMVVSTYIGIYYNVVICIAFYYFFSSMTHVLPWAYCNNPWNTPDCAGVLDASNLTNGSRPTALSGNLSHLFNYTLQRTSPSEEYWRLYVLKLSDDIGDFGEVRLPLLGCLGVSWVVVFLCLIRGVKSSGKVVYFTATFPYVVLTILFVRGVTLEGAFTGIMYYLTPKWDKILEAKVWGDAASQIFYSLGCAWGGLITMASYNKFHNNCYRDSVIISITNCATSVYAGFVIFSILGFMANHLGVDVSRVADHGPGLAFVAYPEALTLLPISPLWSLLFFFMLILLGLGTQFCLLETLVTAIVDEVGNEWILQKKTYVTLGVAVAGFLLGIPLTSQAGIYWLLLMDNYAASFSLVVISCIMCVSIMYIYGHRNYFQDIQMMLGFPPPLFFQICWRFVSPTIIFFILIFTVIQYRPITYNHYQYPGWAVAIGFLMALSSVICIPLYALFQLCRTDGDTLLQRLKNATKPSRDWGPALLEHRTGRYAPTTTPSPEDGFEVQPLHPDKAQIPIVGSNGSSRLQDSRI
Excerpt: Autoradiographic Studies in Rat Brain
The distribution of the binding sites of [^3H][5-Methanesulfonyl-2-((S)-2,2,2-trifluoro-1-methyl-ethoxy)-phenyl]-[5-(tetrahydro-pyran-4-yl)-1,3-dihydro-isoindol-2-yl]-methanone and [^3H][2-Isopropoxy-5-methanesulfonyl-phenyl)-[5-(tetrahydro-pyran-4-yl)-1,3-dihydro-isoindol-2-yl]-methanone] was investigated in the rat brain.
Male Wistar rats were used for these experiments. Rats were sacrificed; their brains were rapidly removed, frozen in dry ice powder. Ten μm-thick sagittal sections were cut in a Cryostat and thaw-mounted on adhesion glass slides. Brain sections were first incubated for 10 min. in Ringer buffer (NaCl 120 mM, KCl 5 mM, CaCl2 2 mM, MgCl2 1 mM, Tris-HCl 50 mM pH 7.4) at 37° C. and then for 60 min. in Ringer buffer at 37° C. containing either [^3H]5-Methanesulfonyl-2-((S)-2,2,2-trifluoro-1-methyl-ethoxy)-phenyl]-[5-(tetrahydro-pyran-4-yl)-1,3-dihydro-isoindol-2-yl-methanone or [^3H]-[2-Isopropoxy-5-methanesulfonyl-phenyl)-[5-(tetrahydro-pyran-4-yl)-1,3-dihydro-isoindol-2-yl]-methanone] at concentration 1 nM. For the evaluation of the non-specific-binding (NSB) of the radiotracer an additional group of sections was incubated with Ringer buffer containing the radiotracer and the reference GlyT1 inhibitor Org 24598 at the concentration 10 μM (60 in at 37° C.). At the end of the incubation, sections were rinsed 2×5 min. and 1×15 min. in ice-cold (4° C.) Ringer buffer and then rapidly dipped three times in distilled water at 4° C. Slide-mounted brain sections were dried under a flow of cold air and exposed together with [^3H]-microscale to a Fuji Imaging plate for 5 days. […] The total amount of radiotracer bound to the brain areas of interest (TB) were measured using the MCID image analysis program and expressed as fmol of bound radiotracer/mg of protein. The amount of [^3H]5-Methanesulfonyl-2-((S)-2,2,2-trifluoro-1-methyl-ethoxy)-phenyl]-[5-(tetrahydro-pyran-4-yl)-1,3-dihydro-isoindol-2-yl]-methanone specifically bound to the GlyT1 carrier (SB) was calculated according to the formula: SB=TB−NSB.

[2] = tested on: glycine transporter 1 (GlyT1); assay: In vivo PET imaging in the baboon; set-up: species or system baboon (papio anubis); conditions: intravenous 1 minute bolus, PET 0 to 90 minutes
Method: 1) PET imaging with [^11C-][2-Isopropoxy-5-methanesulfonyl-phenyl)-[5-(tetrahydro-pyran-4-yl)-1,3-dihydro-isoindol-2-yl]-methanone] and [^11C]-5-Methanesulfonyl-2-((S)-2,2,2-trifluoro-1-methyl-ethoxy)-phenyl]-[5-(tetrahydro-pyran-4-yl)-1,3-dihydro-isoindol-2-yl]-methanone
(§1) The experiments described below were carried out in male baboons (papio anubis). Animals were fasted for 12 hours prior to the PET study. Baboons were initially sedated intramuscularly with Ketamine hydrochloride with restraint dosages of 5-7 mg/kg to achieve a light plane of anesthesia and then maintained on continuous Propofol intravenous infusion @ […] (DIPRIVAN® Injectable Emulsion). Circulatory volume was maintained by infusion of isotonic saline. A femoral arterial catheter was inserted for blood sampling. Physiological vital signs including heart rate, ECG, blood pressure (Spacelabs Monitor, Issaquah, Wash., USA) and oxygen saturation (Nellcor OxiMax® N-600™ Pulse Oximeter, Pleasanton, Calif., USA) were continuously monitored throughout the study. The animal was positioned in an ECAT HRRT® brain PET scanner (High Resolution Research Tomograph, CPS Innovations, Inc., Knoxville, Tenn.). The head of the animal was fitted with a thermoplastic mask that was attached to a head holder for reproducible fixation. […]

GlyT1 transporter [3] = target: T2, GlyT1 transporter (Mus musculus, UniProt P28571); assay: GlyT1 transporter inhibition in vitro (test method of WO2006/082001); format: cell-based; conditions: unlabelled compounds
T2 sequence (P28571 1-651 isoform P28571-2): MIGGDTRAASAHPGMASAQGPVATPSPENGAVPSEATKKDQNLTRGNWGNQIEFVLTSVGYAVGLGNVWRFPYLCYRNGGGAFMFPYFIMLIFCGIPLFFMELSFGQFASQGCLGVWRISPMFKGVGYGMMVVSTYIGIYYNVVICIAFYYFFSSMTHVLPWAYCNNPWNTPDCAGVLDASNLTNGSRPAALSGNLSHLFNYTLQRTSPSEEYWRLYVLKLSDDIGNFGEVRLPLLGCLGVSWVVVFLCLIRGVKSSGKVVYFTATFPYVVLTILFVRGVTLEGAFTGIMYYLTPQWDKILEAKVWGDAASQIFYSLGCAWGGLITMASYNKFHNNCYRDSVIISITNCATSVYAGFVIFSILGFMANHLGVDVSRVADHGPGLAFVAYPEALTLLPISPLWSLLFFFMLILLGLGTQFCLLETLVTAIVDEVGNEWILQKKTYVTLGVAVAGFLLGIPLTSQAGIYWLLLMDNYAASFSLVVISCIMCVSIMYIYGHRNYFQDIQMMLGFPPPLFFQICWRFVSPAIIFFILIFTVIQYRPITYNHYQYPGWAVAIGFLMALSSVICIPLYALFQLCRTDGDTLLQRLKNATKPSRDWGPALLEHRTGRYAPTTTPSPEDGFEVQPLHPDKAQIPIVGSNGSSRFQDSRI
Excerpt: The test method is described in WO2006/082001.

GlyT1 transporter [4] = assay: PET imaging with pharmacological challenges (blocking of radiotracer uptake); format: in vivo, baboon (papio anubis); conditions: intravenous infusion 0.2 mg/kg, after 10 min 0.5 mg/kg for remainder 100 min; started 20 min before radiotracer
Method: as §1, with “fixation. A 6 min transmission scan with a 1 mCi Cs-137 point source was initially done for attenuation correction.” for “fixation.”

[5] = Preliminary pharmacokinetic experiments and modeling (blocker infusion); format: in vivo, baboon; conditions: intravenous infusion 0.2 mg/kg then 0.5 mg/kg
Method: Each animal received two sequential administrations of the radiotracer on the same day. The first administration of radiotracer was used to determine radiotracer baseline uptake. Following the baseline scan, the baboon received an intravenous administration of unlabeled [5-methanesulfonyl-2-((S)-2,2,2-trifluoro-1-methyl-ethoxy)-phenyl]-[5-(tetrahydro-pyran-4-yl)-1,3-dihydro-isoindol-2-yl]-methanone (blocker). The blocker infusion started 20 min before (the second) radiotracer injection. The blocker was first infused at dose=0.2 mg/kg. After 10 min, the flow rate was changed to deliver 0.5 mg/kg for the remainder 100 min of the study.

## [3H-methyl]-[5-Methanesulfonyl-2-((S)-2,2,2-trifluoro-1-methyl-ethoxy)-phenyl]-[5-(tetrahydro-pyran-4-yl)-1,3-dihydro-isoindol-2-yl]-methanone [Example 1]
GlyT1 transporter [1]
  distribution of the binding sites in rat brain sections: corresponded to the known distribution of the GlyT1 transporter

## CC(C)Oc1ccc(S([11CH3])(=O)=O)cc1C(=O)N1Cc2ccc(C3CCOCC3)cc2C1 [Example 4, [^11C-methyl]-(2-Isopropoxy-5-methanesulfonyl-phenyl)-[5-(tetrahydro-pyran-4-yl)-1,3-dihydro-isoindol-2-yl]-methanone]
[2]
  brain uptake of radiotracer: rapidly taken up in multiple brain areas

## CC(C)Oc1ccc(S(C)(=O)=O)cc1C(=O)N1Cc2ccc(C3CCOCC3)cc2C1 [(2-isopropoxy-5-methanesulfonyl-phenyl)-[5-(tetrahydro-pyran-4-yl)-1,3-dihydro-isoindol-2-yl]-methanone]
GlyT1 transporter [3]
  IC50: 14 nM

## CN(CC[C@@H](Oc1ccc(C(F)(F)F)cc1)c1ccccc1)CC(=O)O [Org 24598]
GlyT1 transporter [1]; high concentrations of inhibitor (Org 24598 10 μM), radiotracers 1 nM
  effect of co-incubation on binding of both [3H] radiotracers to rat brain sections: completely abolished binding

## C[C@H](Oc1ccc(S([11CH3])(=O)=O)cc1C(=O)N1Cc2ccc(C3CCOCC3)cc2C1)C(F)(F)F [Example 2, [^11C-methyl]-[5-Methanesulfonyl-2-((S)-2,2,2-trifluoro-1-methyl-ethoxy)-phenyl]-[5-(tetrahydro-pyran-4-yl)-1,3-dihydro-isoindol-2-yl]-methanone]
[2]
  brain uptake of radiotracer: rapidly taken up in multiple brain areas

## [^3H-methyl]-(2-Isopropoxy-5-methanesulfonyl-phenyl)-[5-(tetrahydro-pyran-4-yl)-1,3-dihydro-isoindol-2-yl]-methanone [Example 3]
GlyT1 transporter [1]
  distribution of the binding sites in rat brain sections: corresponded to the known distribution of the GlyT1 transporter

## C[C@H](Oc1ccc(S(C)(=O)=O)cc1C(=O)N1Cc2ccc(C3CCOCC3)cc2C1)C(F)(F)F [[5-methanesulfonyl-2-((S)-2,2,2-trifluoro-1-methyl-ethoxy)-phenyl]-[5-(tetrahydro-pyran-4-yl)-1,3-dihydro-isoindol-2-yl]-methanone]
GlyT1 transporter [3]
  IC50: 28 nM
GlyT1 transporter [4]
  effect of pretreatment with cold blocker on specific uptake of both [11C] radiotracers in brain: completely blocked the specific uptake
[5]
  plasma levels during the PET scan time interval: constant plasma levels
